# Source: paper PMC6515290, “Gypenoside LXXV Promotes Cutaneous Wound Healing In Vivo by Enhancing Connective Tissue Growth Factor Levels Via the Glucocorticoid Receptor Pathway” (Molecules, 2019)
# Biological target: T1, glucocorticoid receptor (GR) (Homo sapiens, UniProt P04150)
# T1 construct: gene NR3C1
# T1 sequence (P04150 1-777): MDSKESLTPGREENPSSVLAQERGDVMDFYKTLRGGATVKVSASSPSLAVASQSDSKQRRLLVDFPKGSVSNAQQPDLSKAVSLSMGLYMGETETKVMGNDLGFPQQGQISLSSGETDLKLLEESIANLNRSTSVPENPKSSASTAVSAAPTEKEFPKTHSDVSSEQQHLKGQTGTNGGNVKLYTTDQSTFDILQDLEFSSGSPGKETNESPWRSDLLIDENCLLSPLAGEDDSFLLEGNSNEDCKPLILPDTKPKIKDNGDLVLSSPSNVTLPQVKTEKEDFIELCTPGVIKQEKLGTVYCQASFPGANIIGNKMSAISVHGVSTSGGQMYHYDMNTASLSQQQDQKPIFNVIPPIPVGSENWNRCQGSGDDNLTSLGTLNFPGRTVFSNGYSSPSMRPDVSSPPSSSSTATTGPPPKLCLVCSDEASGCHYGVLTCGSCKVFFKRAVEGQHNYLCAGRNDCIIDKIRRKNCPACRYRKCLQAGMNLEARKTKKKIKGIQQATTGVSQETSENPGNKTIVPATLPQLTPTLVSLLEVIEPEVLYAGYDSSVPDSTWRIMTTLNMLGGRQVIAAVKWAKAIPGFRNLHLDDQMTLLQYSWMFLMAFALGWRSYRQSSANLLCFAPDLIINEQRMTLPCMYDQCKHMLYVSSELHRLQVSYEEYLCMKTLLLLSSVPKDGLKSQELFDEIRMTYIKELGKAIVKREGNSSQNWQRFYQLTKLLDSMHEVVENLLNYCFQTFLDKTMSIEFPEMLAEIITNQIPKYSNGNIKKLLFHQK
# Assay: PolarScreen GR competitor assay, fluorescence polarization displacement of Fluormone
# Assay type: binding
smiles,measurement,value
"CC(C)=CCC[C@](C)(O[C@@H]1O[C@H](CO[C@@H]2O[C@H](CO)[C@@H](O)[C@H](O)[C@H]2O)[C@@H](O)[C@H](O)[C@H]1O)[C@H]1CC[C@]2(C)[C@@H]1[C@H](O)C[C@@H]1[C@@]3(C)CC[C@H](O)C(C)(C)[C@@H]3CC[C@]12C [G75, Gypenoside LXXV]",IC50,52.8 nM
